Data published in the supplement of paper PMC11061612.

Assays:
[1] = tested on: 22RV1 (Prostate Carcinoma); assay: Bliss excess, mean over the matrix (fraction); higher = more synergy
In short: (§1)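 Bliss excess equals the observed combination effect minus the expected value EA + EB − EA·EB, where EA and EB are the effects of each agent alone. Combination Emax is the second-highest inhibition within the matrix. Inhibition was scaled from CellTiter-Glo 2.0 luminescence, with 0 set by vehicle wells and 1 by blank wells, after 72 hours of two-drug dosing of cells plated in 1536-well plates.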

769-P (Kidney Carcinoma) = assay: as above
In short: as §1

[2] = tested on: A2780 (Ovarian Carcinoma); assay: as above
In short: as §1

[3] = tested on: CGTH-W-1 (Thyroid Gland Carcinoma); assay: as above
In short: as §1

EB2 (Burkitt's Lymphoma) = assay: as above
In short: as §1

[4] = tested on: HCC1395 (Breast Carcinoma); assay: as above
In short: as §1

HCC70 (Breast Carcinoma) = assay: as above
In short: as §1

[5] = tested on: JHH-2 (Hepatocellular Carcinoma); assay: as above
In short: as §1

[6] = tested on: JHU-022 (Oral Cavity Carcinoma); assay: as above
In short: as §1

[7] = tested on: KYSE-220 (Esophageal Squamous Cell Carcinoma); assay: as above
In short: as §1

[8] = tested on: LU-165 (Small Cell Lung Carcinoma); assay: as above
In short: as §1

[9] = tested on: MDA-MB-436 (Breast Carcinoma); assay: as above
In short: as §1

[10] = tested on: MHH-ES-1 (Ewing's Sarcoma); assay: as above
In short: as §1

[11] = tested on: NCI-H1703 (Squamous Cell Lung Carcinoma); assay: as above
In short: as §1

[12] = tested on: NCI-H441 (Lung Adenocarcinoma); assay: as above
In short: as §1

[13] = tested on: SW620 (Colorectal Carcinoma); assay: as above
In short: as §1

[14] = tested on: UACC-812 (Breast Carcinoma); assay: as above
In short: as §1

[15] = tested on: CGTH-W-1 (Thyroid Gland Carcinoma); assay: combination Emax (second highest fraction inhibited in the dose matrix, 72 h); higher = more inhibition; extreme values may be limits of the assay
In short: as §1

IM-9 (Non-Cancerous) = assay: as above
In short: as §1

[16] = tested on: JHU-022 (Oral Cavity Carcinoma); assay: as above
In short: as §1

Row | SMILES | Bliss excess [1] | Bliss excess (769-P (Kidney Carcinoma)) | Bliss excess [2] | Bliss excess [3] | Bliss excess (EB2 (Burkitt's Lymphoma)) | Bliss excess [4] | Bliss excess (HCC70 (Breast Carcinoma)) | Bliss excess [5] | Bliss excess [6] | Bliss excess [7] | Bliss excess [8] | Bliss excess [9] | Bliss excess [10] | Bliss excess [11] | Bliss excess [12] | Bliss excess [13] | Bliss excess [14] | combination Emax [15] | combination Emax (IM-9 (Non-Cancerous)) | combination Emax [16]
1 | CN(CCO)CC[C@H](CSc1ccccc1)Nc1ccc(S(=O)(=O)NC(=O)c2ccc(N3CCC([C@@H](O)c4ccccc4-c4ccc(Cl)cc4)CC3)cc2)cc1S(=O)(=O)C(F)(F)F [AZD4320] + Nc1ccn([C@@H]2O[C@H](CO)[C@@H](O)C2(F)F)c(=O)n1 [Gemcitabine] (first compound max 1 µM, 7x7, partner max 0.3 µM) | -0.0286 | -0.0672 | -0.0321 | 0.0579 | -0.0017 | -0.0457 | 0.103 | -0.0302 | 0.0202 | 0.0369 | 0.0836 | 0.0024 | 0.0486 | -0.0482 | 0.0333 | -0.009 | -0.0326 | 0.887 | 1 | 0.787
2 | Cc1cc2ncnn2cc1Nc1ncc2c(n1)n(C1CCOCC1)c(=O)n2C [AZD7648] + C=CCn1c(=O)c2cnc(Nc3ccc(N4CCN(C)CC4)cc3)nc2n1-c1cccc(C(C)(C)O)n1 [AZD1775] (first compound max 10 µM, partner max 1 µM) | -0.0214 | -0.0082 | 0.0088 | 0.0025 | -0.0857 | -0.0571 | 0.0731 | -0.0469 | -0.0239 | -0.0222 | 0.0491 | -0.0189 | -0.0116 | -0.0283 | 0.0059 | -0.0206 | -0.0446 | 0.265 | 0.996 | 0.497
3 | Cc1cc2ncnn2cc1Nc1ncc2c(n1)n(C1CCOCC1)c(=O)n2C [AZD7648] + CCN(CCO)CCCOc1ccc2c(Nc3cc(CC(=O)Nc4cccc(F)c4)[nH]n3)ncnc2c1 [AZD2811] (first compound max 10 µM, 7x7, partner max 1 µM) | -0.022 | 0.0313 | 0.0122 | 0.0363 | 0.0607 | -0.0181 | -0.0203 | -0.0763 | 0.028 | 0.0544 | -0.0339 | -0.0452 | 0.0263 | -0.0392 | -0.0502 | 0.0357 | 0.0276 | 0.338 | 0.943 | 0.4
4 | Cc1cc2ncnn2cc1Nc1ncc2c(n1)n(C1CCOCC1)c(=O)n2C [AZD7648] + CN(C)CCCOc1ccc(-c2ccc3ncc4c(c3c2)n(C2CCOCC2)c(=O)n4C)cn1 [AZD0156] (first compound max 10 µM, 7x7, partner max 1 µM) | -0.0334 | -0.0086 | -0.0148 | 0.0015 | -0.0217 | -0.0273 | -0.0122 | -0.0441 | -0.057 | 0.0204 | 0.0071 | -0.0147 | 0.0138 | -0.033 | -0.0016 | 0.0148 | 0.033 | 0.228 | 0.456 | 0.3
5 | Cc1cc2ncnn2cc1Nc1ncc2c(n1)n(C1CCOCC1)c(=O)n2C [AZD7648] + COc1cc([C@@H]2c3cc4c(cc3[C@@H](O[C@@H]3O[C@@H]5CO[C@@H](C)O[C@H]5[C@H](O)[C@H]3O)[C@H]3COC(=O)[C@H]23)OCO4)cc(OC)c1O [Etoposide] (first compound max 10 µM, 7x7, partner max 10 µM) | 0.0583 | 0.0859 | 0.085 | 0.0595 | 0.0495 | -0.013 | 0.0677 | -0.0132 | 0.0522 | 0.066 | -0.0132 | 0.0189 | 0.105 | 0.0532 | 0.0013 | 0.0975 | -0.0106 | 0.603 | 1 | 0.577
6 | Cc1cc2ncnn2cc1Nc1ncc2c(n1)n(C1CCOCC1)c(=O)n2C [AZD7648] + C[C@@H]1COCCN1C2=NC(=NC(=C2)C3(CC3)[S@](=N)(=O)C)C4=C5C=CNC5=NC=C4 [AZD6738] (first compound max 10 µM, 7x7, partner max 10 µM) | -0.0179 | 0.0264 | 0.0061 | 0.0191 | -0.0604 | 0.0361 | -0.0058 | -0.073 | 0.0105 | -0.0122 | 0.0351 | 0.0316 | 0.0275 | 0.0089 | 0.0095 | 0.0264 | 0.0254 | 0.317 | 0.964 | 0.578
7 | Cc1cc2ncnn2cc1Nc1ncc2c(n1)n(C1CCOCC1)c(=O)n2C [AZD7648] + O=C(c1cc(Cc2n[nH]c(=O)c3ccccc23)ccc1F)N1CCN(C(=O)C2CC2)CC1 [Olaparib] (first compound max 10 µM, 7x7, partner max 10 µM) | -0.0832 | -0.024 | -0.0213 | -0.0412 | 0.0055 | -0.0871 | -0.0292 | -0.0099 | -0.0682 | -0.0372 | -0.102 | -0.0522 | -0.0218 | -0.0307 | -0.0555 | -0.0305 | -0.0119 | 0.122 | 0.51 | 0.172
8 | COc1cc2ncnc(Nc3ccc(F)c(Cl)c3)c2cc1OCCCN1CCOCC1 [Gefitinib] + CC(C)n1c(=O)n(C)c2cnc3cc(F)c(-c4ccc(OCCCN5CCCCC5)nc4)cc3c21 [AZD1390] (first compound max 10 µM, 7x7, partner max 0.3 µM) | -0.079 | -0.0722 | -0.0704 | -0.0417 | -0.0774 | -0.0265 | -0.0536 | -0.0446 | -0.053 | -0.0059 | -0.0477 | -0.0402 | -0.0611 | 0.0012 | -0.047 | -0.0762 | -0.0549 | 0 | 0.424 | 0.626
9 | COc1cc2c(cc1OCCCCCOc1cc3c(cc1OC)C(=O)N1C=C(C)C[C@H]1C=N3)N=C[C@@H]1CC(C)=CN1C2=O [SG3199] + O=C(c1cc(Cc2n[nH]c(=O)c3ccccc23)ccc1F)N1CCN(C(=O)C2CC2)CC1 [Olaparib] (first compound max 0.001 µM, 7x7, partner max 10 µM) | -0.0421 | -0.0643 | -0.0404 | -0.0332 | -0.0259 | -0.0449 | -0.0252 | -0.0244 | -0.0479 | -0.0151 | -0.0532 | -0.0412 | -0.0454 | -0.0451 | -0.0871 | -0.0303 | -0.0377 | 0.168 | 0.38 | 0.0543
10 | N#Cc1cnc(Nc2cc(NC[C@H]3CNCCO3)c(C(F)(F)F)cn2)cn1 [SRA737] + C=CCn1c(=O)c2cnc(Nc3ccc(N4CCN(C)CC4)cc3)nc2n1-c1cccc(C(C)(C)O)n1 [AZD1775] (first compound max 10 µM, partner max 1 µM) | 0.0367 | 0.0166 | 0.097 | -0.0074 | 0.0335 | 0.0559 | 0.0276 | -0.008 | -0.0533 | 0.0983 | 0.0319 | -0.0132 | 0.0231 | 0.0391 | -0.0403 | -0.0272 | 0.0343 | 0.432 | 1 | 0.528
11 | N#Cc1cnc(Nc2cc(NC[C@H]3CNCCO3)c(C(F)(F)F)cn2)cn1 [SRA737] + CCc1c2c(nc3ccc(O)cc13)-c1cc3c(c(=O)n1C2)COC(=O)[C@]3(O)CC [SN-38] (first compound max 10 µM, 7x7, partner max 0.3 µM) | -0.0792 | -0.0284 | -0.0496 | -0.0377 | -0.0723 | -0.0012 | -0.0249 | 0.0131 | -0.0966 | 0.0163 | -0.0704 | -0.031 | -0.0259 | -0.0606 | -0.0258 | 0.0405 | -0.0309 | 0.701 | 1 | 0.759
12 | N#Cc1cnc(Nc2cc(NC[C@H]3CNCCO3)c(C(F)(F)F)cn2)cn1 [SRA737] + O=c1[nH]cc(F)c(=O)[nH]1 [5-Fluorouracil] (first compound max 10 µM, 7x7, partner max 20 µM) | 0.0268 | -0.112 | -0.0066 | 0.0467 | -0.0038 | -0.0584 | 0.0824 | 0.0695 | -0.0078 | -0.0134 | -0.082 | 0.0202 | 0.0337 | -0.0304 | -0.0258 | -0.0353 | 0.023 | 0.646 | 1 | 0.513
13 | C[C@@H](c1ccc2nccn2c1)n1nnc2ncc(-c3cnn(C)c3)nc21 [Savolitinib] + CC1(C)CCC(CN2CCN(c3ccc(C(=O)NS(=O)(=O)c4ccc(NCC5CCOCC5)c([N+](=O)[O-])c4)c(Oc4cnc5[nH]ccc5c4)c3)CC2)=C(c2ccc(Cl)cc2)C1 [Venetoclax] (first compound max 1 µM, 7x7, partner max 1 µM) | -0.0952 | -0.0419 | -0.0843 | -0.0378 | -0.0391 | -0.0095 | -0.0361 | -0.0705 | -0.0621 | -0.0573 | -0.0126 | -0.0228 | -0.031 | -0.015 | -0.029 | -0.0727 | -0.043 | 0.0942 | 0.385 | 0.257
14 | C[C@@H](c1ccc2nccn2c1)n1nnc2ncc(-c3cnn(C)c3)nc21 [Savolitinib] + Cc1c2c(nn1C)CSCc1cc(n(C)n1)CSc1cc(c3ccccc3c1)OCCCc1c(C(=O)O)n(C)c3c-2c(Cl)ccc13 [AZD5991] (first compound max 1 µM, 7x7, partner max 1 µM) | -0.0204 | -0.0252 | -0.074 | -0.0315 | -0.0501 | -0.0699 | -0.0312 | -0.0228 | -0.0742 | -0.025 | -0.0046 | -0.0243 | -0.0486 | -0.0063 | -0.0416 | -0.0537 | 0.0174 | 0.173 | 0.573 | 0.132
